Laboratory results as given in ChEMBL document CHEMBL3877302, “Design and Synthesis of a New Series of 4-Heteroarylamino-1'-azaspiro[oxazole-5,3'-bicyclo[2.2.2]octanes as α7 Nicotinic Receptor Agonists. 1. Development of Pharmacophore and Early Structure-Activity Relationship” (J Med Chem, 2016).
Activity calls are given as the source filed them. The calls are words filed in the database; no cut-off is given here.

Experiments:
[1] = target: T1, Cytochrome P450 2C8 (Homo sapiens, UniProt P10632); test: Inhibition of human CYP2C8; type: ADME
T1 sequence (P10632 whole entry): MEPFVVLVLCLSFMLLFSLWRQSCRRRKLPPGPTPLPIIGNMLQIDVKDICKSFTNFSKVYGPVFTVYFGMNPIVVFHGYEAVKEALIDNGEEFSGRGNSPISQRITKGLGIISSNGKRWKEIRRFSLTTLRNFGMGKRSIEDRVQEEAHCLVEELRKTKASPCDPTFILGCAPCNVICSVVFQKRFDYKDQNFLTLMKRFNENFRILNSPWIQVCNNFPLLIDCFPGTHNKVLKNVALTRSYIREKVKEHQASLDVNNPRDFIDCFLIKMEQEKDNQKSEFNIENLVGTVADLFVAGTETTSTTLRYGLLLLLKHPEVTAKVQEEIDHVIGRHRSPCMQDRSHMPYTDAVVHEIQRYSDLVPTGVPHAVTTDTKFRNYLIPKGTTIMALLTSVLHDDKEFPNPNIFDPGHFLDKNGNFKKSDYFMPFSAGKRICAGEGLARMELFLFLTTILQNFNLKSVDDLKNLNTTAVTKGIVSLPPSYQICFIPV

[2] = target: T2, Cytochrome P450 2B6 (Homo sapiens, UniProt P20813); test: Inhibition of human CYP2B6; type: ADME
T2 sequence (P20813 whole entry): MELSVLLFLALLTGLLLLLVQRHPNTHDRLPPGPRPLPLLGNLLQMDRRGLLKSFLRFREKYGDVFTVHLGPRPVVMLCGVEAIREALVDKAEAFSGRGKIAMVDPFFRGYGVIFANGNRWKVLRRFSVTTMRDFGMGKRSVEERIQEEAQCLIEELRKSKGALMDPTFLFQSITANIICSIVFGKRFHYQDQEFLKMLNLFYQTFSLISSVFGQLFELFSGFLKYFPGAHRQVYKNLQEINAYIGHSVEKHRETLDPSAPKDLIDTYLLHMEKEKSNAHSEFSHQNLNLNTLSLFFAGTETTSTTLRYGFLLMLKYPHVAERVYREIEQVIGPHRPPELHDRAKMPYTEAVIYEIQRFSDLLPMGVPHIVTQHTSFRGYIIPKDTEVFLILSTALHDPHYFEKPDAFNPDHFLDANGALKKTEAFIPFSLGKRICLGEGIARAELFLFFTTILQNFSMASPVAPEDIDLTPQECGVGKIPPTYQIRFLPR

[3] = Drug uptake in C57Bl/6 mouse NOR model brain at 0.3 mg/kg, sc measured after 6 hrs; type: ADME, organism-based; settings: read-out: Drug uptake
[4] = system: Mus musculus; test: Reversal of NMDAR antagonist MK-801-induced memory deficits in C57Bl/6 mouse at 1 and 3 mg/kg, sc administered 30 mins prior to […] challenge measured after 30 mins by Y maze assay; type: functional, organism-based
[5] = target: Neuronal acetylcholine receptor; alpha3/beta4 (Rattus norvegicus, UniProt P04757+P12392); test: Agonist activity at rat alpha3beta4 nAChR expressed in HEK293 cells for 2 mins by FLIPR assay; type: cell-based
[6] = Plasma concentration in C57Bl/6 mouse NOR model at 0.1 mg/kg, sc measured after 0.5 hrs; type: ADME, organism-based
[7] = Metabolic stability in rat microsomes assessed as compound remaining measured after 10 mins; type: ADME, Microsome; settings: read-out: Stability
[8] = system: Mus musculus; test: Cognitive enhancing effect in C57Bl/6 mouse at 0.3 mg/kg, sc administered 30 mins to 6 hrs prior to training measured after 24 hrs by novel recognition assay; type: functional, organism-based
[9] = target: Cytochrome P450 2C19 (Homo sapiens, UniProt P33261); test: Inhibition of human CYP2C19; type: ADME
[10] = Fraction unbound in rat plasma; type: ADME, cell-free
[11] = Plasma concentration in C57Bl/6 mouse NOR model at 0.3 mg/kg, sc measured after 6 hrs; type: ADME, organism-based
[12] = target: Neuronal acetylcholine receptor; alpha4/beta2 (Rattus norvegicus, UniProt P09483+P12390); test: Agonist activity at rat alpha4beta2 nAChR expressed in HEK293 cells for 2 mins by FLIPR assay; type: cell-based
[13] = target: Cytochrome P450 2D6 (Homo sapiens, UniProt P10635); test: Inhibition of human CYP2D6; type: ADME
[14] = target: T3, Cytochrome P450 3A4 (Homo sapiens, UniProt P08684); test: Inhibition of human CYP3A4 using BFC as substrate; type: ADME
[15] = Plasma concentration in C57Bl/6 mouse NOR model at 1 mg/kg, sc measured after 0.5 hrs; type: ADME, organism-based
[16] = Plasma concentration in C57Bl/6 mouse NOR model at 0.3 mg/kg, sc measured after 2 hrs; type: ADME, organism-based
[17] = system: Mus musculus; test: Cognitive enhancing effect in C57Bl/6 mouse at 0.1 to 1 mg/kg, sc administered 30 mins prior to training measured after 24 hrs by novel recognition assay; type: functional, organism-based
[18] = Drug uptake in C57Bl/6 mouse NOR model brain at 0.3 mg/kg, sc measured after 2 hrs; type: ADME, organism-based; settings: read-out: Drug uptake
[19] = Drug uptake in C57Bl/6 mouse NOR model brain at 0.03 mg/kg, sc measured after 0.5 hrs; type: ADME, organism-based; settings: read-out: Drug uptake
[20] = target: T4, Cytochrome P450 1A2 (Homo sapiens, UniProt P05177); test: Inhibition of human CYP1A2; type: ADME
T4 sequence (P05177 whole entry): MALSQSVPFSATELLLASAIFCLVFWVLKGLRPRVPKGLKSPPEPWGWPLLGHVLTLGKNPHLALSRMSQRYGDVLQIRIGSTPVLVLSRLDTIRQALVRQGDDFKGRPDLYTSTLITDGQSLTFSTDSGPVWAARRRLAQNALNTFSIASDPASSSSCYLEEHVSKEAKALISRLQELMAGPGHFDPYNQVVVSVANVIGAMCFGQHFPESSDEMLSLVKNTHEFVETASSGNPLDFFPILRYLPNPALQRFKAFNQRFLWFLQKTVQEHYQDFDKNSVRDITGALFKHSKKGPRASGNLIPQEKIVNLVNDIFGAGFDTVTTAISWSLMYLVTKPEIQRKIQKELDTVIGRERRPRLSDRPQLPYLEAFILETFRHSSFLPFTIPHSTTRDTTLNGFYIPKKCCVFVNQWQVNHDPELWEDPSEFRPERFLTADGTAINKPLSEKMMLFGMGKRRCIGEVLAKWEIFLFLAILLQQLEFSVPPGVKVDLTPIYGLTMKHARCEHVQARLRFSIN

[21] = target: T3, Cytochrome P450 3A4; test: Inhibition of human CYP3A4 using BZR as substrate; type: ADME
[22] = target: Nicotinic acetylcholine receptor alpha-1/beta-1/delta/epsilon (Rattus norvegicus, UniProt P09660+P25108+P25109+P25110); test: Agonist activity at rat alpha1beta1deltaepsilon nAChR expressed in HEK293 cells for 2 mins by FLIPR assay; type: cell-based
[23] = Drug uptake in C57Bl/6 mouse NOR model brain at 0.3 mg/kg, sc measured after 0.5 hrs; type: ADME, organism-based; settings: read-out: Drug uptake
[24] = target: Cytochrome P450 2C9 (Homo sapiens, UniProt P11712); test: Inhibition of human CYP2C9; type: ADME
[25] = Drug uptake in C57Bl/6 mouse NOR model brain at 0.1 mg/kg, sc measured after 0.5 hrs; type: ADME, organism-based; settings: read-out: Drug uptake
[26] = Fraction unbound in mouse plasma; type: ADME, cell-free
[27] = Plasma concentration in C57Bl/6 mouse NOR model at 0.3 mg/kg, sc measured after 0.5 hrs; type: ADME, organism-based
[28] = Drug uptake in C57Bl/6 mouse NOR model brain at 1 mg/kg, sc measured after 0.5 hrs; type: ADME, organism-based; settings: read-out: Drug uptake
[29] = system: Mus musculus; test: Cognitive enhancing effect in C57Bl/6 mouse administered subcutaneously for 30 mins prior to training measured after 24 hrs by novel recognition assay; type: functional; settings: C57Bl/6, sc, read-out: MED
[30] = Plasma concentration in C57Bl/6 mouse NOR model at 0.03 mg/kg, sc measured after 0.5 hrs; type: ADME, organism-based
[31] = Metabolic stability in human microsomes assessed as compound remaining measured after 10 mins; type: ADME, Microsome; settings: read-out: Stability
[32] = Metabolic stability in mouse microsomes assessed as compound remaining measured after 10 mins; type: ADME, Microsome; settings: read-out: Stability
[33] = Fraction unbound in human plasma; type: ADME, cell-free

T3 sequence (P08684 whole entry): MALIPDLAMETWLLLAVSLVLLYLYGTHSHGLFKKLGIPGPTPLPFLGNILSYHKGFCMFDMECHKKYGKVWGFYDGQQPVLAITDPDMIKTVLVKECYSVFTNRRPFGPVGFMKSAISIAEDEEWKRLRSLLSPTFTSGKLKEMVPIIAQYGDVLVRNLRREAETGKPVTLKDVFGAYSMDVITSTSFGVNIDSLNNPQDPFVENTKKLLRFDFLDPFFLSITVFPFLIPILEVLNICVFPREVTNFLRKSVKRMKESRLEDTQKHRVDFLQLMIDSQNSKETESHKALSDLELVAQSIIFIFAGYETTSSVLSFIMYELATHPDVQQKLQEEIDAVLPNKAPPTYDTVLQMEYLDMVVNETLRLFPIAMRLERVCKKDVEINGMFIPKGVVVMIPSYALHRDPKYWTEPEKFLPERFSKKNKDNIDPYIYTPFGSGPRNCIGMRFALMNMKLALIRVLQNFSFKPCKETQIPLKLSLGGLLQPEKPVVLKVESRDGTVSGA
Sequence of Cytochrome P450 2C9 (P11712 whole entry): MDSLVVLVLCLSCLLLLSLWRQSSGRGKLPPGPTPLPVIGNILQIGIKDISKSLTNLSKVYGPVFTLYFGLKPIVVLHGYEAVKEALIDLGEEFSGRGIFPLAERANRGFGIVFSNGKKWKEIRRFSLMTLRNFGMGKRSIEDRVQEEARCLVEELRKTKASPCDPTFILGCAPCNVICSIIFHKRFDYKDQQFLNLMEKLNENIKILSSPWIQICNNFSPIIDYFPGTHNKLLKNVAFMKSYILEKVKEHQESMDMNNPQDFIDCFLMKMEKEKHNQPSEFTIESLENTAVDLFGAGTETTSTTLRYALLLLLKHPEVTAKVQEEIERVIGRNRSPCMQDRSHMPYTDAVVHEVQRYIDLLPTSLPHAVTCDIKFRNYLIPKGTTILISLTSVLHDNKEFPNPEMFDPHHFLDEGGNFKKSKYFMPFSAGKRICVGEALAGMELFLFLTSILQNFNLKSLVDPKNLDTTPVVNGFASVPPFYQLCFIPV
Sequence of Cytochrome P450 2D6 (P10635 whole entry): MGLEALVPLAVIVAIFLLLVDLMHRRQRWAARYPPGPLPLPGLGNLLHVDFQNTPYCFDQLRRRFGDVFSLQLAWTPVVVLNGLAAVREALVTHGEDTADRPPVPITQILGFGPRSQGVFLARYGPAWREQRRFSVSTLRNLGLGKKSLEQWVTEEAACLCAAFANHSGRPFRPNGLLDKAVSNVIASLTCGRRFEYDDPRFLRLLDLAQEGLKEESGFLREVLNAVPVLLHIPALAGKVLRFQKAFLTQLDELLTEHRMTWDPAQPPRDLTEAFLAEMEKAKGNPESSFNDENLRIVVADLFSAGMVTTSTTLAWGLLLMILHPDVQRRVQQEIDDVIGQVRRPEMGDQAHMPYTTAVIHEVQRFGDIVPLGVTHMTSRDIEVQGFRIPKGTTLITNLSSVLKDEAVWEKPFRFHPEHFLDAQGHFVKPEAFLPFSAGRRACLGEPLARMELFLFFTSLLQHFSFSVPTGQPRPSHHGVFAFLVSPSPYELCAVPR
Sequence of Nicotinic acetylcholine receptor alpha-1/beta-1/delta/epsilon (P25109 whole entry): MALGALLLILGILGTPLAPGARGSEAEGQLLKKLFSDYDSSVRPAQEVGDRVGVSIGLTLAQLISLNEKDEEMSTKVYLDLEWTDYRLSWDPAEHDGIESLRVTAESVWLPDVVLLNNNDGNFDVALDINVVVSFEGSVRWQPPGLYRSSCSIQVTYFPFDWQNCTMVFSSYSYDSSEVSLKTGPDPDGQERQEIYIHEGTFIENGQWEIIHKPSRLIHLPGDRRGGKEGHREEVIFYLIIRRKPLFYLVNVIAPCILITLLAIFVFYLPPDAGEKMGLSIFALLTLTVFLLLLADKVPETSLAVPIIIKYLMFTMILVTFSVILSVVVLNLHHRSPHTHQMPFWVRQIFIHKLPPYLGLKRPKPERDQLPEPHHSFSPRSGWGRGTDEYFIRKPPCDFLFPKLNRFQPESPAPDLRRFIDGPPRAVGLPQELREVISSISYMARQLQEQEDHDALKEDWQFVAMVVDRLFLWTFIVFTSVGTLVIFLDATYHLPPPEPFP
Sequence of Nicotinic acetylcholine receptor alpha-1/beta-1/delta/epsilon (P25108 whole entry): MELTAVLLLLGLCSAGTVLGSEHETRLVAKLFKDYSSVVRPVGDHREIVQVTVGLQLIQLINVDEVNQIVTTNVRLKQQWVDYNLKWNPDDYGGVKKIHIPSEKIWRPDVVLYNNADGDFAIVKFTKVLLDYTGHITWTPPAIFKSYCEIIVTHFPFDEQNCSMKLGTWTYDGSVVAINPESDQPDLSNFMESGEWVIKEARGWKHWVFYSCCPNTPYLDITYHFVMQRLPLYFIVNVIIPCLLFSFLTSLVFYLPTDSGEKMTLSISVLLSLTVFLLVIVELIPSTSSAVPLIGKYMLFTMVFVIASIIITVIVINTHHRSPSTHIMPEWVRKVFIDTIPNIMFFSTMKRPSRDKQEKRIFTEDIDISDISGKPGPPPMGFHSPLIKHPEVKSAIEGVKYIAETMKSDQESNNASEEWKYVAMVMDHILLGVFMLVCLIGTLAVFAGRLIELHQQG
Sequence of Nicotinic acetylcholine receptor alpha-1/beta-1/delta/epsilon (P25110 whole entry): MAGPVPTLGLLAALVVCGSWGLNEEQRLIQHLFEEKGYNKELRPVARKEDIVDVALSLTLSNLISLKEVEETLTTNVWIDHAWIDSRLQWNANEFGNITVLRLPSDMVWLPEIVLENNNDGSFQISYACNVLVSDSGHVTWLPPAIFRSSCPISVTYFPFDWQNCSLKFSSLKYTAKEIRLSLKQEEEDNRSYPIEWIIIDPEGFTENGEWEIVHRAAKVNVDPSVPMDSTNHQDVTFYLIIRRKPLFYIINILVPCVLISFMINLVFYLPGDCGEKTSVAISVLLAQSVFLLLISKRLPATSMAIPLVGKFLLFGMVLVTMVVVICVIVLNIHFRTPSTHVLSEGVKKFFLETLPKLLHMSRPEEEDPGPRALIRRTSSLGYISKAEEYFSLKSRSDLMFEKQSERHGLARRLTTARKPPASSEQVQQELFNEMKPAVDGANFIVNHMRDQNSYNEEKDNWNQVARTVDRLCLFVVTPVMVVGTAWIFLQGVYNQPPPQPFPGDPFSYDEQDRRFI
Sequence of Nicotinic acetylcholine receptor alpha-1/beta-1/delta/epsilon (P09660 whole entry): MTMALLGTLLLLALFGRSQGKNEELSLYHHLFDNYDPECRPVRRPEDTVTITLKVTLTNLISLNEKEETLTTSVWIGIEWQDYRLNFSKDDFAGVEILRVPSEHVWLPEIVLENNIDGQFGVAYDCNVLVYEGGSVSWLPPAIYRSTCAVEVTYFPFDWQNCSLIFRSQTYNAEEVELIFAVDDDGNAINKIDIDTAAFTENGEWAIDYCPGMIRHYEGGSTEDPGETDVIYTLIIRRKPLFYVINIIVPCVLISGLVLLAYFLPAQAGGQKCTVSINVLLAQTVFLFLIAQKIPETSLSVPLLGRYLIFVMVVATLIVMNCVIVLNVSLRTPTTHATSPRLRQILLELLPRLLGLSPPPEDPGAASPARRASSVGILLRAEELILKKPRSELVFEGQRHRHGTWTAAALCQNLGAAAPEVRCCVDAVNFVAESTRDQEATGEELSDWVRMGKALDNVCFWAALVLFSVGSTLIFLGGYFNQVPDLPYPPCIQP
Sequence of Neuronal acetylcholine receptor; alpha3/beta4 (P04757 whole entry): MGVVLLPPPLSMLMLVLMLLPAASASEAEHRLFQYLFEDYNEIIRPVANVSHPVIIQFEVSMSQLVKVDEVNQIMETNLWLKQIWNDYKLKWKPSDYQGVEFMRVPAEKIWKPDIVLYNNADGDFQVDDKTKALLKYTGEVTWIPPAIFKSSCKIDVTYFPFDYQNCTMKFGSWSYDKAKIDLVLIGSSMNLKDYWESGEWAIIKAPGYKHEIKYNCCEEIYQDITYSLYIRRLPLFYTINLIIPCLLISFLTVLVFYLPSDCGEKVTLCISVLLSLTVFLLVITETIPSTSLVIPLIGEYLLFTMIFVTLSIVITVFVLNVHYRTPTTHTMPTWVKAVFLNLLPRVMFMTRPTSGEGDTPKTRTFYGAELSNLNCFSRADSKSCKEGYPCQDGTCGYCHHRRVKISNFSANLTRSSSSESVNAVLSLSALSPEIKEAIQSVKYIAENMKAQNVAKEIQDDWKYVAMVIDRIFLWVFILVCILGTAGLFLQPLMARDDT
Sequence of Neuronal acetylcholine receptor; alpha3/beta4 (P12392 whole entry): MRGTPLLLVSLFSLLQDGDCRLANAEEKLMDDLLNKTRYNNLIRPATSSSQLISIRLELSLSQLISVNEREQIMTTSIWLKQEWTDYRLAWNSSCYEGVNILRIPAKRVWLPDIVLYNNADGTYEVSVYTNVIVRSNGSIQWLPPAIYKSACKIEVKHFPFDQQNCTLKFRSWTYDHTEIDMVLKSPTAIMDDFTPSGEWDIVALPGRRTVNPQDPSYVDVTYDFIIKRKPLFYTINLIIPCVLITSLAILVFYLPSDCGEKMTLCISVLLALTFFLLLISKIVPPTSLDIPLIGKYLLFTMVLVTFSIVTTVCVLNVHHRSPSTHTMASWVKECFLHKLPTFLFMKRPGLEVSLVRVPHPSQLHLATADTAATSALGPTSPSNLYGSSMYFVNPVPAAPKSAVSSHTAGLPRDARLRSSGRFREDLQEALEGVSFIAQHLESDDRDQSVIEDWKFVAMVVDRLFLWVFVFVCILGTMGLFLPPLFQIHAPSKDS
Sequence of Cytochrome P450 2C19 (P33261 whole entry): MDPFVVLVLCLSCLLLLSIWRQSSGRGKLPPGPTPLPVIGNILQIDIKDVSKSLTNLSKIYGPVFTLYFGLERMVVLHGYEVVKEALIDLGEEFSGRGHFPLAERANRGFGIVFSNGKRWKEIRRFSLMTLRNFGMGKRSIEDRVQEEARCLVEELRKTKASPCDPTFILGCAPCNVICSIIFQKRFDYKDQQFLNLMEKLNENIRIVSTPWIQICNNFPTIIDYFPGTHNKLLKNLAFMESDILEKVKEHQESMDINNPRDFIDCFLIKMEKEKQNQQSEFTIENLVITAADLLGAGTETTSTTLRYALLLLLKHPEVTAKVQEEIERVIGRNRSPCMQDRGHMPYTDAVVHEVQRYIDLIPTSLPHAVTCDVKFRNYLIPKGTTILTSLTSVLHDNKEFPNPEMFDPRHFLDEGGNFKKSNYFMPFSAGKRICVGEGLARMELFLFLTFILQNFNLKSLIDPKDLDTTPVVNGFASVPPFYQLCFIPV

## c1ccc2cc(NC3=NC[C@@]4(CN5CCC4CC5)O3)ncc2c1
[1]
  IC50: > 40 µM
[2]
  IC50: > 40 µM
[3]
  concentration at 6 h: 18 nM
[4]
  Activity: Active
[5]
  EC50: > 100 µM
[6]
  concentration at 0.5 h: 16 nM
[7]
  remaining at 10 min: 89%
[8]
  Activity: Active
[9]
  IC50: > 40 µM
[10]
  fraction unbound: 0.269
[11]
  concentration at 6 h: 9 nM
[12]
  EC50: > 100 µM
[13]
  IC50: > 40 µM
[14]
  IC50: > 40 µM
[15]
  concentration at 0.5 h: 184 nM
[16]
  concentration at 2 h: 26 nM
[17]
  Activity: Active
[18]
  concentration at 2 h: 96 nM
[19]
  concentration at 0.5 h: 19 nM
[20]
  IC50: > 40 µM
[21]
  IC50: > 40 µM
[22]
  EC50: > 100 µM
[23]
  concentration at 0.5 h: 155 to 182 nM
[24]
  IC50: > 40 µM
[25]
  concentration at 0.5 h: 57 nM
[26]
  fraction unbound: 0.23
[27]
  concentration at 0.5 h: 43 to 69 nM
[28]
  concentration at 0.5 h: 744 nM
[29]
  minimal effective dose: 0.1 mg/kg
[30]
  concentration at 0.5 h: 4 nM
[31]
  remaining at 10 min: 96%
[32]
  remaining at 10 min: 1%
[33]
  fraction unbound: 0.247
